# From patent US12473249B2, “Aromatic compounds and pharmaceutical uses thereof” (BASF AS, priority 2018, dated 2025)
# Marks after values point to notes of the source that are not given here.
# Tests used:
# Format in all cases: in vivo, mouse
# [1] = system: hepatic expression of key genes; experiment: Hepatic target gene expression via RNA sequencing in ob/ob AMLN mice; settings: 0.3 mmol/kg bw day, 4 weeks treatment
# Protocol: (§1) ob/ob mice are consistently fibrosis (liver) prone when cholesterol (2%) and 40% fat (containing 18% trans-fatty acids) and 20% fructose are added to a high-caloric diet (i.e., AMLN diet). ob/ob mice on AMLN diet (termed ‘ob/ob AMLN mice’) develop steatohepatitis and fibrosis within a shorter timeframe (<12 weeks) compared with wild-type C57BL/6 mice (AMLN mice) fed the same diet. ob/ob AMLN mice provide an obese diet-induced model of NASH that also allows the study of effects on glycemic control.
# (§2) Thirty male ob/ob mice (5 weeks old) were fed the AMLN diet for 15 weeks then randomised into 3 groups of 10 mice/group to receive Compound B or Compound A (both at 0.3 mmol/kg bw day) or no treatment (vehicle) for a further 4 weeks. Assessment of the hepatic expression of key genes regulating plasma lipid concentrations (LDLr), hepatic fibrosis (collA1), bile acid transport/re-uptake (Slc51b and Slc10a2) and inflammation (CD68) was made via RNA sequencing at 4 weeks. To assess the effects of Compound B and Compound A on glycemic control, an oral glucose tolerance test (OGTT) was also performed at 3 weeks. An additional group of mice (n=5) were also treated with a PPAR-γ agonist (pioglitazone, 30 mg/kg bw day) was also included to compare effects upon bodyweight.
# [2] = Relative bodyweight in ob/ob AMLN mice; settings: 0.3 mmol/kg bw day, 4 weeks treatment, FIG. 11
# Protocol: as §1, §2
# APOE*3Leiden mice = experiment: Plasma lipids in high-fat diet fed APOE*3Leiden mice
# Protocol: The APOE*3Leiden mouse expresses a variant of the human apolipoprotein E3 (APOE3), the APOE*3Leiden, in addition to the human apolipoprotein C1 (APOC1).
# Studies were performed in APOE*3Leiden mice (13-15 weeks old) placed on a semi-synthetic high fat diet (24% fat w/w) with 0.25% cholesterol w/w. After a 4-week run-in period, mice were sub-divided into groups of 5 mice each and administration of Compound A, Compound B, or vehicle alone was started. Both Compound B and Compound A were administered at a dose of 0.3 mmol/kg bw/day via diet. Sunflower oil (10 ml v/w) was used as a vehicle to facilitate mixing. After 4 weeks of treatment mice were sacrificed by C02 asphyxiation and plasma cholesterol and triglycerides were measured using commercially available kits (Roche*/Hitachi©).
# In a further study, performed as described above, the effects of Compound A, Compound B, and Compound C were compared with the effects of Reference Compound 1 ((Z)-3-(pent-2-en-1-yloxy)benzoic acid) and Reference Compound 2 ((Z)-4-(pent-2-en-1-yloxy)benzoic acid) on triglyceride levels. […] The results of this study are described in Example 17.
# C57BL/6 mice = experiment: Hepatic steatosis in oral PN diet fed C57BL/6 mice, initial experiment (Oil Red O); settings: 19 days, 0.3 mmol/kg bw day in MCT by orogastric gavage
# Source text: Male C57BL/6 mice, 6 to 8 weeks old at initiation of the experiments, were used for all experimental groups. Mice were fed either an ad libitum diet of standard rodent chow (calorie composition: 26% protein, 14% fat, 60% carbohydrates) and water or a parenteral nutrition (PN) solution that mimics the PN diet used in neonatal intensive care units. The PN solution was a fat-free, high-carbohydrate liquid diet (20% dextrose, 2% essential and nonessential amino acids, 0.2% pediatric trace elements, 0.5% pediatric multivitamins, 30 mEq of sodium, 20 mEq of potassium, 15 mEq of calcium (as calcium gluconate), 10 mEq of magnesium, 10 mEq of phosphate, 5 mEq of acetate, and 30 mEq of chloride per liter) administered as a single 50 mL bottle per cage which mice consumed ad libitum. […] Prince et al., JPEN J Parenter Enteral Nutr., 2014; 38(5): 608-616.
# In the initial experiment, only Compound A was tested. The results of this experiment are described in Example 14.
# Male C57BL/6 mice, 6 weeks old at initiation of experiments, were divided into three groups (10 mice per group). One group was fed an ad libitum diet of standard rodent chow and water. The group fed standard rodent chow received no additional treatments during the experimental period and served as a negative control group. The two other groups were fed the above-described PN diet. […]
# [3] = high-fat high-cholesterol diet, 4 weeks treatment
# [4] = high-fat high-cholesterol diet, 4 weeks treatment, dose 0.1 mmol/kg bw/day
structure (smiles),measurement,setting,value
"CCCCCOc1cccc(C(=O)O)c1C [Compound A, 2-methyl-3-(pentyloxy)benzoic acid]",hepatic expression of Coll al (collagen1a1) versus vehicle,[1]; FIG. 5,significantly reduce
same,hepatic expression of Slc10a2 versus vehicle,[1]; FIG. 6,significantly decreases
same,hepatic expression of Slc51b versus vehicle,[1]; FIG. 7,significantly decreases
same,hepatic expression of ABCC2 versus vehicle,[1]; FIG. 8,significantly increases
same,hepatic expression of CYP7A1,[1]; FIG. 9,reduces
same,hepatic expression of CD68 versus vehicle,[1]; FIG. 10,significantly decreases
same,expression of hepatic LDLr versus vehicle,[1]; FIG. 12,significantly increase
same,relative bodyweight versus vehicle,[2],significantly decreased
same,triglyceride levels over 4 weeks,"APOE*3Leiden mice; further study with reference compounds, 0.3 mmol/kg bw/day, FIG. 31",significantly reduced
same,plasma TG versus vehicle,APOE*3Leiden mice; [3],significantly reduce
same,total plasma cholesterol versus vehicle,APOE*3Leiden mice; [3],significantly reduce
same,Reduction in plasma TG vs control (%),APOE*3Leiden mice; [4],79*** %
same,Reduction in plasma cholesterol vs control (%),APOE*3Leiden mice; [4],30*** %
same,development of steatosis induced by an oral PN diet (Red Oil O stain in isolated liver sections),C57BL/6 mice; FIG. 13,prevented the development of steatosis
same,liver architecture,C57BL/6 mice; oral PN diet,Normal liver architecture
